Assay [1] deals with MOG-induced mouse experimental autoimmune encephalomyelitis model. Kind of assay: MOG-induced mouse experimental autoimmune encephalomyelitis model, 30 mg/kg. In kind it is in vivo. The conditions noted are these: C57BL/6J mouse, MOG 35-55; 30 mg/kg orally twice daily for 16 days from three days before inoculation; scored 13 days after inoculation. Here is the method:
The action of the cyclohexane derivative (I) or the pharmaceutically acceptable salt thereof against an increase in the neurological symptom score in a MOG-induced mouse experimental autoimmune encephalomyelitis model was evaluated. The mouse experimental autoimmune encephalomyelitis model was prepared according to the method described in Journal of Neuroscience Research, 2006, Vol. 84, pp. 1225-1234 with partial modification. A MOG 35-55 administration solution, which was prepared by mixing equal volumes of a PBS solution containing a partially synthesized peptide of MOG (MOG 35-55; CS Bio Company Inc.) whose concentration was adjusted to 4 mg/mL and Freund's complete adjuvant, was intracutaneously inoculated to both lateral regions of each C57BL/6J mouse (male, 7-weeks old) (Charles River Laboratories Japan) in a total amount of 0.1 mL (0.05 mL per side). Further, on the day of inoculation of the MOG 35-55 administration solution, and two days thereafter, 200 μL of pertussis toxin (Sigma) whose concentration was adjusted to 1 μg/mL was intraperitoneally administered to each mouse. From three days before inoculation of the MOG 35-55 administration solution, Compound 3 was orally administered to mice twice daily at a dose of 30 mg/kg for 16 successive days. Compound 3 was used as a suspension in 0.5% methylcellulose solution. The group in which Compound 3 was administered to mice was provided as the Compound 3 administration group. To provide a vehicle administration group, 0.5% methylcellulose solution was administered in the same manner. Thirteen days after inoculation of the MOG 35-55 administration solution, the neurological symptom score was scored (0: normal, 1: limp tail or hind limb weakness, 2: limp tail and hind limb weakness, 3: partial hind limb paralysis, 4: complete hind limb paralysis, 5: moribund state). […] Comparative Control Compound 1 and Comparative Control Compound 2 were similarly evaluated. […] Thirteen days after inoculation of the MOG 35-55 administration solution, the neurological symptom score was scored.

For assay [2] the test system is unchanged. Kind of assay: MOG-induced mouse experimental autoimmune encephalomyelitis model, 3 mg/kg and 10 mg/kg. As to conditions: C57BL/6J mouse, MOG 35-55, scored 14 days after inoculation. In kind it is in vivo. Here is the method:
Action of the cyclohexane derivative (I) or the pharmaceutically acceptable salt thereof against an increase in the neurological symptom score in a MOG-induced mouse experimental autoimmune encephalomyelitis model was evaluated. A MOG 35-55 administration solution, which was prepared by mixing equal volumes of a PBS solution containing a partially synthesized peptide of MOG (MOG 35-55; CS Bio Company Inc.) whose concentration was adjusted to 4 mg/mL and Freund's complete adjuvant, was intracutaneously inoculated to both lateral regions of each C57BL/6J mouse (male, 10-weeks old) (Charles River Laboratories Japan) in a total amount of 0.1 mL (0.05 mL per side). Further, on the day of inoculation of the MOG 35-55 administration solution, and two days thereafter, 200 μL of pertussis toxin (Sigma) whose concentration was adjusted to 1 μg/mL was intraperitoneally administered to each mouse. As a test compound, Compound 3 was used. […] Fourteen days after inoculation of the MOG 35-55 administration solution, the neurological symptom score was scored (0: normal, 1: limp tail or hind limb weakness, 2: limp tail and hind limb weakness, 3: partial hind limb paralysis, 4: complete hind limb paralysis, 5: moribund state). […]

Assay [3] relates to PLP-induced mouse experimental autoimmune encephalomyelitis model. The assay can be described thus: PLP-induced mouse experimental autoimmune encephalomyelitis model. As to conditions: SJL mouse, PLP 139-151; 10 mg/kg orally twice daily for 7 days from two days after inoculation; scored 9 days after inoculation. It counts as in vivo. Here is the method:
Action of the cyclohexane derivative (I) or the pharmaceutically acceptable salt thereof against an increase in the neurological symptom score in a PLP-induced mouse experimental autoimmune encephalomyelitis model was evaluated. The mouse experimental autoimmune encephalomyelitis model was prepared according to the method described in International Immunology, 1997, Vol. 9, pp. 1243-1251 with partial modification. A PLP 139-151 administration solution, which was prepared by mixing equal volumes of a PBS solution containing a partially synthesized peptide of PLP (PLP 139-151; Kokusan Chemical Co., Ltd.) whose concentration was adjusted to 2 mg/mL and Freund's complete adjuvant, was intracutaneously inoculated to both lateral regions of each SJL mouse (female, 6-weeks old) (Charles River Laboratories Japan) in a total amount of 0.1 mL (0.05 mL per side). Further, on the day of inoculation of the PLP 139-151 administration solution, and two days thereafter, 200 μL of pertussis toxin (Sigma) whose concentration was adjusted to 1 μg/mL was intraperitoneally administered to each mouse. […] Nine days after inoculation of the PLP 139-151 administration solution, the neurological symptom score was scored (0: normal, 1: limp tail or hind limb weakness, 2: limp tail and hind limb weakness, 3: partial hind limb paralysis, 4: complete hind limb paralysis, 5: moribund state). […]

The target in assay [4] is T1, thrombin (Homo sapiens, UniProt P00734).
T1 construct: purchased Anaspec Inc
Kind of assay: Thrombin activity assay (SensoLyte 520 kit, FRET). It counts as biochemical. As to conditions: at the maximum concentration, 30 μmol/L; read-out: thrombin activity inhibition rate.
Protocol: The action of the cyclohexane derivative (I) or the pharmaceutically acceptable salt thereof on the thrombin activity was evaluated using a SensoLyte (registered trademark) 520 thrombin activity assay kit manufactured by Anaspec Inc., which utilizes fluorescence resonance energy transfer (FRET).
The test compound was dissolved in dimethylsulfoxide (hereinafter referred to as DMSO), and diluted with the assay buffer included in the kit to a final DMSO concentration of 0.5 to 1%. […] Thereafter, the fluorescence value was measured by excitation at 485 nm and detection at 520 nm.
The thrombin activity inhibition rate (%) was calculated according to Equation 1, and regression analysis was carried out to obtain a sigmoid curve (variable slope), thereby calculating the IC50 value of the thrombin activity inhibition by the test compound: Thrombin activity inhibition rate (%)=(1−((fluorescence value in the presence of both thrombin and the test compound)−(fluorescence value in the absence of both thrombin and the test compound))/((fluorescence value in the presence of thrombin and absence of the test compound)−(fluorescence value in the absence of both thrombin and the test compound)))×100 Equation 1.

On to `COc1ccc(-n2nc(C3(O)CCNCC3)cc2-c2ccc(C)cc2)cc1` [Comparative Control Compound 1], for which the “rate of suppression of exacerbation of neurological symptoms” value (“rate … of neurological symptoms” for short) in assay [1] amounted to 3.3%.

For `COc1ccc(-n2nc(C3(O)CCC(O)CC3)cc2-c2ccccc2C)cc1` (stereo not shown) [Comparative Control Compound 2], the “rate … of neurological symptoms” value in assay [1] was determined as 6.5%.

As a reminder, the inhibition is the share of the control response that was lost under treatment. Turning to `COc1ccc(-n2nc(C3(O)CCC(O)CC3)cc2-c2ccc(C)cc2)cc1` (stereo not drawn) [Compound 3, 1-(1-(4-methoxyphenyl)-5-(p-tolyl)-1H-pyrazol-3-yl)cyclohexane-cis-1,4-diol], the “rate … of neurological symptoms” value is reported as 85.7% in assay [1], 53.8% in assay [2] (3 mg/kg orally twice daily for 12 days from two days after inoculation), 61.5% in assay [2] (10 mg/kg orally twice daily for 12 days from two days after inoculation) and 66.4% in assay [3]. In assay [4], the inhibition at 30 µM was found to be 17.2%.

Values taken from US10130608B2, “Methods of treating or preventing multiple sclerosis” (Toray Industries, Inc., priority 2014, dated 2018).
